Results published in PubChem BioAssay (NCI).
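Growth conditions: 96-well plates. Treatment: test compound, 48 hours, 5 concentrations. Analysis: linear interpolation between bracketing concentrations; unreached endpoints set to highest concentration. Definition used: TGI = concentration required for complete inhibition of growth.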

Tests used:
Test in all cases: DTP human tumour cell line panel, 48 h
[1] = test system: NCI/ADR-RES ovarian
[2] = test system: MDA-MB-435
[3] = test system: HCT-116 colon
[4] = test system: U251 CNS
[5] = test system: BT-549 breast
[6] = test system: NCI-H226 lung
[7] = test system: CAKI-1 renal
[8] = test system: MDA-N
[9] = test system: SF-539 CNS
[10] = test system: HOP-62 NSCLC
[11] = test system: NCI-H23 lung
[12] = test system: DU-145 prostate
[13] = test system: HS 578T breast
[14] = test system: SK-MEL-28 melanoma
[15] = test system: HCC-2998 colon
[16] = test system: SK-OV-3 ovarian
[17] = test system: CCRF-CEM leukemia
[18] = test system: EKVX NSCLC
[19] = test system: UO-31 renal
[20] = test system: MOLT-4 leukemia
[21] = test system: OVCAR-5 ovarian
[22] = test system: UACC-62 melanoma
[23] = test system: HL-60(TB) leukemia
[24] = test system: OVCAR-3 ovarian
[25] = test system: HT29 colon
[26] = test system: MDA-MB-231 breast
[27] = test system: HOP-92 NSCLC
[28] = test system: PC-3 prostate
[29] = test system: A549 NSCLC
[30] = test system: COLO 205 colon
[31] = test system: RPMI-8226 leukemia
[32] = test system: MCF7 breast
[33] = test system: OVCAR-4 ovarian
[34] = test system: SF-268 CNS
[35] = test system: SW-620 colon
[36] = test system: NCI-H460 lung
[37] = test system: SNB-19 CNS
[38] = test system: OVCAR-8 ovarian
[39] = test system: KM12 colon
[40] = test system: NCI-H522 lung
[41] = test system: HCT-15 colon
[42] = test system: IGROV1 ovarian
[43] = test system: M14 melanoma
[44] = test system: K-562 leukemia
[45] = test system: SK-MEL-2 melanoma
[46] = test system: ACHN renal
[47] = test system: SNB-75 CNS
[48] = test system: SN12C renal
[49] = test system: SR leukemia
[50] = test system: LOX IMVI melanoma
[51] = test system: SF-295 CNS
[52] = test system: TK-10 renal
[53] = test system: 786-0 renal
[54] = test system: UACC-257 melanoma
[55] = test system: MALME-3M melanoma
[56] = test system: T-47D breast
[57] = test system: A498 renal
[58] = test system: SK-MEL-5 melanoma

Compound: Cc1nc2ccc(S(=O)(=O)Nc3ccc(Cl)cc3)cc2c(=O)n1NC(=O)CNc1ccc(Cl)cc1
- TGI [1]: > 100 µM
- TGI [2]: > 100 µM
- TGI [3]: > 100 µM
- TGI [4]: > 100 µM
- TGI [5]: > 100 µM
- TGI [6]: > 100 µM
- TGI [7]: > 100 µM
- TGI [8]: > 100 µM
- TGI [9]: > 100 µM
- TGI [10]: > 100 µM
- TGI [11]: > 100 µM
- TGI [12]: > 100 µM
- TGI [13]: > 100 µM
- TGI [14]: > 100 µM
- TGI [15]: > 100 µM
- TGI [16]: > 100 µM
- TGI [17]: > 100 µM
- TGI [18]: > 100 µM
- TGI [19]: > 100 µM
- TGI [20]: > 100 µM
- TGI [21]: > 100 µM
- TGI [22]: > 100 µM
- TGI [23]: > 100 µM
- TGI [24]: > 100 µM
- TGI [25]: > 100 µM
- TGI [26]: > 100 µM
- TGI [27]: > 100 µM
- TGI [28]: > 100 µM
- TGI [29]: > 100 µM
- TGI [30]: > 100 µM
- TGI [31]: > 100 µM
- TGI [32]: > 100 µM
- TGI [33]: > 100 µM
- TGI [34]: > 100 µM
- TGI [35]: > 100 µM
- TGI [36]: > 100 µM
- TGI [37]: > 100 µM
- TGI [38]: > 100 µM
- TGI [39]: > 100 µM
- TGI [40]: > 100 µM
- TGI [41]: > 100 µM
- TGI [42]: > 100 µM
- TGI [43]: > 100 µM
- TGI [44]: > 100 µM
- TGI [45]: > 100 µM
- TGI [46]: > 100 µM
- TGI [47]: > 100 µM
- TGI [48]: > 100 µM
- TGI [49]: > 100 µM
- TGI [50]: > 100 µM
- TGI [51]: > 100 µM
- TGI [52]: > 100 µM
- TGI [53]: > 100 µM
- TGI [54]: > 100 µM
- TGI [55]: > 100 µM

Compound: O=c1[nH]nc(Cc2ccccc2)n1/N=C/c1c[nH]c2ccccc12
- TGI [1]: > 100 µM
- TGI [2]: > 100 µM
- TGI [3]: > 100 µM
- TGI [4]: > 100 µM
- TGI [6]: > 100 µM
- TGI [7]: 81.8 µM
- TGI [8]: > 100 µM
- TGI [9]: > 100 µM
- TGI [10]: > 100 µM
- TGI [56]: > 100 µM
- TGI [11]: > 100 µM
- TGI [12]: > 100 µM
- TGI [13]: 79.4 µM
- TGI [14]: > 100 µM
- TGI [15]: > 100 µM
- TGI [16]: > 100 µM
- TGI [17]: > 100 µM
- TGI [18]: > 100 µM
- TGI [19]: > 100 µM
- TGI [20]: > 100 µM
- TGI [21]: > 100 µM
- TGI [22]: > 100 µM
- TGI [57]: > 100 µM
- TGI [23]: > 100 µM
- TGI [24]: > 100 µM
- TGI [25]: > 100 µM
- TGI [26]: > 100 µM
- TGI [27]: > 100 µM
- TGI [58]: > 100 µM
- TGI [28]: > 100 µM
- TGI [29]: > 100 µM
- TGI [30]: > 100 µM
- TGI [31]: > 100 µM
- TGI [32]: > 100 µM
- TGI [33]: > 100 µM
- TGI [34]: 88.1 µM
- TGI [35]: > 100 µM
- TGI [36]: > 100 µM
- TGI [37]: > 100 µM
- TGI [38]: > 100 µM
- TGI [39]: > 100 µM
- TGI [40]: > 100 µM
- TGI [41]: > 100 µM
- TGI [42]: > 100 µM
- TGI [43]: > 100 µM
- TGI [44]: > 100 µM
- TGI [45]: > 100 µM
- TGI [46]: > 100 µM
- TGI [47]: 51.3 µM
- TGI [48]: > 100 µM
- TGI [49]: > 100 µM
- TGI [50]: > 100 µM
- TGI [51]: > 100 µM
- TGI [52]: > 100 µM
- TGI [53]: > 100 µM
- TGI [54]: > 100 µM
- TGI [55]: > 100 µM
